In general, IC50 refers to the concentration needed to halve the response being measured.

This note sets out measurements from patent US20260053931A1, “MDM2 TARGETING PROTACS” (THE WISTAR INSTITUTE OF ANATOMY AND BIOLOGY, priority 2023, published 2026).

For one assay, the system named is TAp73. Put plainly: Western blotting for TAp73 in TNBC cell lines. Format: cell-based, human. The following applies: five TNBC cell lines. How it is done:
FIGS. 28A-28L show TAp73 is activated by the MDM2-PROTAC YX-02-030 and mediates apoptosis of p53-inactivated TNBC cells. A-C, RNA-seq (triplicates) was performed on MDA-MB-231 cells treated with the MDM2-PROTAC YX-02-030 (6 μM, 16 hr) or DMSO vehicle control or expressing MDM2 shRNA or non-targeting control shRNA (48 hr). A, Pathway analysis using Hallmark gene signatures. B, Heatmap of p53 family target genes of individual samples (3 each). C, Spearman's correlation of differentially expressed p53 family target genes between PROTAC-treated relative to DMSO vehicle control and MDM2 shRNA relative to non-targeting shRNA control; Spearman's correlation coefficient (p) and P-value indicated. D, qRT-PCR analysis (triplicate, 6 μM, 16 hr) to validate RNA-seq results. […] I, ChIP for TAp73 was performed with MDA-MB-231 cells following treatment with the MDM2-PROTAC YX-02-030 (6 μM, 16 hr) or DMSO vehicle control, and enrichment of TAp73 (triplicate; first normalized to input DNA then IgG control) was determined at the loci indicated. J and K, After 48 hr, MDA-MB-231 cells expressing two independent TAp73 shRNA or non-targeting shRNA (shNT) control were treated with MDM2-PROTAC YX-02-030 or DMSO vehicle control (6 μM, 16 hr). p53/TAp73 target genes were evaluated by Western blotting (J) and qRT-PCR (K, triplicate). […]
For orientation: A western blot detects proteins with antibodies after separation by electrophoresis.

Another assay concerns the target MDM2-p53 (Homo sapiens, UniProt Q00987). Put plainly: Inhibition of MDM2 binding to p53 using HTRF (Table 3). To be noted: mean ± S.E.M. of three replications.
The next assay addresses T1, VHL complex (Homo sapiens, UniProt P40337).
T1 construct: purchased R&D systems E3-655-025
The assay is described as follows: Inhibition of HIF-1α peptide binding to the VHL complex using HTRF (Table 3). The following applies: mean ± S.E.M. of three replications; read-out: VHL-HIFa peptide IC50. How it is done:
Assays contained 2 nM of HIS-VHL complex (R&D systems, E3-655-025), 2 nM of biotin-hydroxyproline-HIF1α peptide (Biotin-[…] (SEQ ID NO: 2), X=hydroxyproline), 0.3 nM anti-HIS-Tb HTRF donor antibody and 4 nM streptavidin-d2 HTRF acceptor (PerkinElmer) in a final volume of 10 μL of 25 mM HEPES, pH 7.4, 150 mM NaCl, 5 mM DTT, 0.005% Tween20 in white low volume 384-well plates. Both HIS-VHL complex and biotin-HIF1α peptide were pre-incubated with their respective HTRF antibodies for 15 min. Test compounds were solubilized at 10 mM in DMSO and concentration series was added to the assay plate using the Echo 650 acoustic liquid handling system by direct dilution. The final amount of DMSO added to the assay was 100 nL […]. Compounds were pre-incubated with HIS-VHL complex before the addition of the biotin-HIF1α peptide. After a 2 hr incubation, the HTRF signal was measured using the ClarioStar plate reader (BMG Labtech). […] IC50 values were determined from nonlinear regression fits of a data to a four parameter dose-response equation using XLFit (IDBS). Data are the means±S.E.M. of three replications. The data is described in Table 3 above.
Background: TR-FRET usually uses a lanthanide donor and a delayed reading to cut background.

The subject of assay [1] is p53-null mouse sarcoma cells. The assay is described as follows: Murine Mdm2+/+ p53-null sarcoma cells, Western blot and MTT. Format: cell-based. To be noted: increasing concentrations, MTT assay, 48 hrs.

T1 sequence (P40337 whole entry): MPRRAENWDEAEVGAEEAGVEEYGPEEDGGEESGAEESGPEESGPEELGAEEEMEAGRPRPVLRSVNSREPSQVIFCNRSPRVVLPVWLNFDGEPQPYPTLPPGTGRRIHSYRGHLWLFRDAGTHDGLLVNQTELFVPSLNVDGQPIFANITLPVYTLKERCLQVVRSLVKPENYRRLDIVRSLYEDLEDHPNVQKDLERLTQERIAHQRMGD
T1 sequence (Q15370 whole entry partner): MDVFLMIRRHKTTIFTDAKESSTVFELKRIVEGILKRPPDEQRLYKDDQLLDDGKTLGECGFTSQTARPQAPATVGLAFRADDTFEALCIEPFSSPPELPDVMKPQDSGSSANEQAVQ
T1 sequence (Q15369 whole entry partner): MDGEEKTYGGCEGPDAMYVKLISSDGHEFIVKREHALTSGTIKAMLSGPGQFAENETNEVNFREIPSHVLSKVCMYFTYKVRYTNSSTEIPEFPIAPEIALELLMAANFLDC
T1 sequence (Q13617 whole entry partner): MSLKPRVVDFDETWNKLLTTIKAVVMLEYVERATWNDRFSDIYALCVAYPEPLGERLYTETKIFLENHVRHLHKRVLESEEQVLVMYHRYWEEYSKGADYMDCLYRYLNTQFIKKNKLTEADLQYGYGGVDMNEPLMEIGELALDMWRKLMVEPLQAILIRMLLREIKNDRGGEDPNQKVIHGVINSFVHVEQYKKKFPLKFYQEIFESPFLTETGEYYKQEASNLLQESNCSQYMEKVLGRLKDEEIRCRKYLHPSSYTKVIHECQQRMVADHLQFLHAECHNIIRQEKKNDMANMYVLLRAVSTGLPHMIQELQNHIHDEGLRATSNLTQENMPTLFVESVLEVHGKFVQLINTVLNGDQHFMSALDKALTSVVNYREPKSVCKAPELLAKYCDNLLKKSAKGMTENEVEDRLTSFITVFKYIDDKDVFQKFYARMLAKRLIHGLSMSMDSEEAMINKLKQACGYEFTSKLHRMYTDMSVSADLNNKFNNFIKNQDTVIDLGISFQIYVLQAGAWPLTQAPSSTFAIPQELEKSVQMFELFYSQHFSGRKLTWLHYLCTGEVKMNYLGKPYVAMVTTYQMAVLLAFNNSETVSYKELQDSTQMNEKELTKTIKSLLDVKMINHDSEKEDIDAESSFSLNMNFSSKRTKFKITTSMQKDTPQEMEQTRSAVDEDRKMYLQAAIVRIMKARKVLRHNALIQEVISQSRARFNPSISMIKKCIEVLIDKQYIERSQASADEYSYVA
T1 sequence (P62877 whole entry partner): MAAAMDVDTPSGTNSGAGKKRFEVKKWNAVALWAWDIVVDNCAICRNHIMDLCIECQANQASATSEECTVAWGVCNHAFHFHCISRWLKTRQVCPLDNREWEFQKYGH
Chain of MDM2-p53 (Q00987 whole entry): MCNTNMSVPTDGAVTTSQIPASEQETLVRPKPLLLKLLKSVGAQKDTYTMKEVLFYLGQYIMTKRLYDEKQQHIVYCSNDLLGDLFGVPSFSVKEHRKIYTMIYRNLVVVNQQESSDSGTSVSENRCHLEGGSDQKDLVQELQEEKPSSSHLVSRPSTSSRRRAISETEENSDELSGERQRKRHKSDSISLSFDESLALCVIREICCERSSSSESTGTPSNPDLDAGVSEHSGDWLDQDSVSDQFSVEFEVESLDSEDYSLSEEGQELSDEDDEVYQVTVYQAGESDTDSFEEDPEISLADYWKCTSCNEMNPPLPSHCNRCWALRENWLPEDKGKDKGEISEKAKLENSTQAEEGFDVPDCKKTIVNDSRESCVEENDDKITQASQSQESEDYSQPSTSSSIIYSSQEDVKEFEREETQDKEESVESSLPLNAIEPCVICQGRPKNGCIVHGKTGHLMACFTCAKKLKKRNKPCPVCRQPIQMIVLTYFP
Protocol for MDM2-p53: Test compounds were solubilized at 10 mM in DMSO and concentration series was added to the assay plate using the Echo 650 acoustic liquid handling system by direct dilution. The final amount of DMSO added to the assay was 100 nL (0.1%). Compounds were pre-incubated with 5 μL of GST-MDM2 for 15-30 min before 5 μL of HIS-p53/anti-HIS-d2 was added to the assay. After a 2 hr incubation, the HTRF signal was measured using the ClarioStar plate reader (BMG Labtech). […] IC50 values were determined from nonlinear regression fits of a data to a four parameter dose-response equation using XLFit (IDBS). Data are the means±S.E.M. of three replications.

As to `CCOc1cc(C(C)(C)C)ccc1C1=NC(C)(c2ccc(Cl)cc2)C(C)(c2ccc(Cl)cc2)N1C(=O)N1CCN(CC(=O)NCCOCCOCCOCC(=O)N[C@H](C(=O)N2C[C@H](O)C[C@H]2C(=O)NCc2ccc(-c3scnc3C)cc2)C(C)(C)C)CC1` (stereo in doubt) [YX-02-030, (2S,4R)-1-((S)-2-(tert-butyl)-17-(4-((4S,5R)-2-(4-(tert-butyl)-2-ethoxyphenyl)-4,5-bis(4-chlorophenyl)-4,5-dimethyl-4,5-dihydro-1H-imidazole-1-carbonyl)piperazin-1-yl)-4,16-dioxo-6,9,12-trioxa-3,15-diazaheptadecanoyl)-4-hydroxy-N-(4-(4-methylthiazol-5-yl)benzyl)pyrrolidine-2-carboxamide], the TAp73 protein level result in the assay on TAp73 is given as “levels of TAp73 protein increased”.

Consider `CCOc1cc(C(C)(C)C)ccc1C1=N[C@@](C)(c2ccc(Cl)cc2)[C@@](C)(c2ccc(Cl)cc2)N1C(=O)N1CCN(CC(=O)O)CC1` (racemic) [YX-02-023, 2-(4-((4S,5R)-2-(4-(tert-butyl)-2-ethoxyphenyl)-4,5-bis(4-chlorophenyl)-4,5-dimethyl-4,5-dihydro-1H-imidazole-1-carbonyl)piperazin-1-yl)acetic acid], for which the IC50 at MDM2-p53 was 11 ± 1.3 nM; on VHL complex, greater than 10000 nM. The “killing of p53-null sarcoma cells” value in assay [1] is on record as “not”.
